Experimental data reported in paper PMC11204205 (Science Advances, 2024).

Target: PKMζ (protein kinase Mzeta) (Homo sapiens, UniProt Q05513)
Assay: split-Venus BiFC of KIBRA-PKMζ dimerization in HEK293T cells
Format: cell-based

PKMζ (protein kinase Mzeta), sequence (Q05513 184-592 limits assumed): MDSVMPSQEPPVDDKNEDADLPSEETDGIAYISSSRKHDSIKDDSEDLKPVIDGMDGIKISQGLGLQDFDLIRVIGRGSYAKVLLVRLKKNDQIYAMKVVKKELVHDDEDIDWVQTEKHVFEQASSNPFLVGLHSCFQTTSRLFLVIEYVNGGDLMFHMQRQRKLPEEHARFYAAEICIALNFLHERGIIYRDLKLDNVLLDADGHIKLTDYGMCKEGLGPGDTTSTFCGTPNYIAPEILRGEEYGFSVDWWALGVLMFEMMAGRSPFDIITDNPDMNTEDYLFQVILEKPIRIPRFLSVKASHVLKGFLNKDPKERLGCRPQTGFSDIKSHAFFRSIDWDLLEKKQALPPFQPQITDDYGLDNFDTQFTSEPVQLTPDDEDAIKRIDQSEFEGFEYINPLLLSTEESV
PKMζ (protein kinase Mzeta), sequence (Q8IX03 whole entry partner): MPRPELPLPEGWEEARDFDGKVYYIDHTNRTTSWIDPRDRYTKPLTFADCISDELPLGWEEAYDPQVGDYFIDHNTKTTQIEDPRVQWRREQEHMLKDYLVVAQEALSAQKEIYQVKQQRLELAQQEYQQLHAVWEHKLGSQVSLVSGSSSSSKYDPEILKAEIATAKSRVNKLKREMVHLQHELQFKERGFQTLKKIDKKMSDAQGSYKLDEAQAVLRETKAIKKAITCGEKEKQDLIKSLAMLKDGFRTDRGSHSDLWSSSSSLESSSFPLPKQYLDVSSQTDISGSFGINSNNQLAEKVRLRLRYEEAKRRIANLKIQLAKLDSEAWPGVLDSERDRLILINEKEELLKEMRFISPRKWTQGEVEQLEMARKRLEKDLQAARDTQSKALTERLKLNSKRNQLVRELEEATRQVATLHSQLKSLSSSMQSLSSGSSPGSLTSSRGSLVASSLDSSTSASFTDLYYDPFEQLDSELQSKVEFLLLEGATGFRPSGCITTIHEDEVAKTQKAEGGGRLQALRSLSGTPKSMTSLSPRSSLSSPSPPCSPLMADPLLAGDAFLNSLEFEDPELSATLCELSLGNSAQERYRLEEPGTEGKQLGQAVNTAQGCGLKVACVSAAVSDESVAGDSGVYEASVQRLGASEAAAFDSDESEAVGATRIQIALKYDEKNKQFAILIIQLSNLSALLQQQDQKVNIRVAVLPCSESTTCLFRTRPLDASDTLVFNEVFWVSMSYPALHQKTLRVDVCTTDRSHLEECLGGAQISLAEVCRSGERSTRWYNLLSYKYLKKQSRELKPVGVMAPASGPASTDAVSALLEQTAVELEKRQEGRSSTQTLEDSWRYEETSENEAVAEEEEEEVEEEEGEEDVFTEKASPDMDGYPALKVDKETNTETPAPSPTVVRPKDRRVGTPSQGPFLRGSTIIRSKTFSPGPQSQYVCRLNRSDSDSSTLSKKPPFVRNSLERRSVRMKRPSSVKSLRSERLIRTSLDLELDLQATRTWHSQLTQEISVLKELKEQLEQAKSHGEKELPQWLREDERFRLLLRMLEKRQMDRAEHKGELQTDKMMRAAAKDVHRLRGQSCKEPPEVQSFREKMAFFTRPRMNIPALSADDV

IC50: ~1000 nM
Compound: O=S(=O)(O)c1cc(O)c2c(S(=O)(=O)O)cc(S(=O)(=O)O)cc2c1 [ζ-stat, 1-naphthol-3,6,8-trisulfonic acid]
